Laboratory results from ChEMBL document CHEMBL5344406, “1,2,3-Triazole-containing hybrids with potential antibacterial activity against ESKAPE pathogens” (2022).
Values after ≈ are worked out from the molar mass of the structure shown.

What was measured:
Assay type in all cases: functional
Pseudomonas aeruginosa [1] = assay: Antibacterial activity against Pseudomonas aeruginosa assessed as bacterial growth inhibition
Escherichia coli [2] = assay: Antibacterial activity against Escherichia coli assessed as bacterial growth inhibition
Acinetobacter baumannii = assay: Antibacterial activity against Acinetobacter baumannii ATCC 19606 assessed as bacterial growth inhibition incubated for 18 to 20 hrs by broth microdilution method; conditions: time 18-20 hrs
Escherichia coli [3] = assay: Antibacterial activity against Escherichia coli ATCC 25922 assessed as bacterial growth inhibition incubated for 18 to 20 hrs by broth microdilution method; conditions: time 18-20 hrs
Klebsiella pneumoniae = assay: Antibacterial activity against Klebsiella pneumoniae ATCC 29665 assessed as bacterial growth inhibition incubated for 18 to 20 hrs by broth microdilution method; conditions: time 18-20 hrs
Pseudomonas aeruginosa [4] = assay: Antibacterial activity against Pseudomonas aeruginosa ATCC 27853 assessed as bacterial growth inhibition incubated for 18 to 20 hrs by broth microdilution method; conditions: time 18-20 hrs
Staphylococcus aureus [5] = assay: Antibacterial activity against Staphylococcus aureus ATCC 25923 assessed as bacterial growth inhibition incubated for 18 to 20 hrs by broth microdilution method; conditions: time 18-20 hrs
Staphylococcus aureus [6] = assay: Antibacterial activity against methicillin-resistant Staphylococcus aureus clinical isolate 1 assessed as bacterial growth inhibition incubated for 8 hrs by CLSI based broth microdilution method
Staphylococcus aureus [7] = assay: Antibacterial activity against methicillin-resistant Staphylococcus aureus clinical isolate 2 assessed as bacterial growth inhibition incubated for 8 hrs by CLSI based broth microdilution method
Pseudomonas aeruginosa [8] = assay: Antibacterial activity against Pseudomonas aeruginosa assessed as bacterial growth inhibition by serial dilution method
Bacillus subtilis = assay: Antibacterial activity against Bacillus subtilis assessed as bacterial growth inhibition by serial dilution method
[9] = system: Staphylococcus epidermidis; assay: Antibacterial activity against Staphylococcus epidermidis assessed as bacterial growth inhibition by serial dilution method
Escherichia coli [10] = assay: Antibacterial activity against Escherichia coli assessed as bacterial growth inhibition by serial dilution method
Staphylococcus aureus [11] = assay: Antibacterial activity against Staphylococcus aureus assessed as bacterial growth inhibition by serial dilution method

For COc1ccc(Cn2cc(COc3ccc(/C=C/C(=O)c4c(O)cc(C)oc4=O)cc3)nn2)cc1, the MIC (Pseudomonas aeruginosa [1]) was 1.56 mg/L (≈ 3.29 µM) and the MIC (Escherichia coli [2]) was 1.56 mg/L (≈ 3.29 µM).
O=C(Cn1cc(CN2CCN(c3cc4c(cc3F)c(=O)c(C(=O)O)cn4C3CC3)CC2)nn1)N[C@@H](Cc1cc(=O)[nH]c2ccccc12)C(=O)O was tested, and the MIC (Acinetobacter baumannii) was 0.25 mg/L (≈ 0.365 µM), the MIC (Escherichia coli [3]) was 0.25 mg/L (≈ 0.365 µM) and the MIC (Klebsiella pneumoniae) was 0.25 mg/L (≈ 0.365 µM). It also gave an MIC (Pseudomonas aeruginosa [4]) of 0.25 mg/L (≈ 0.365 µM) and an MIC (Staphylococcus aureus [5]) of 0.25 mg/L (≈ 0.365 µM).
O=C(Cn1cc(CN2CCN(c3cc4c(cc3F)c(=O)c(C(=O)O)cn4C3CC3)CC2)nn1)N[C@@H](CSc1ccccc1)C(=O)O gave an MIC (Acinetobacter baumannii) of 0.25 mg/L (≈ 0.385 µM), an MIC (Escherichia coli [3]) of 0.25 mg/L (≈ 0.385 µM) and an MIC (Klebsiella pneumoniae) of 0.25 mg/L (≈ 0.385 µM). For the same compound, the MIC (Pseudomonas aeruginosa [4]) was 0.25 mg/L (≈ 0.385 µM) and the MIC (Staphylococcus aureus [5]) was 0.25 mg/L (≈ 0.385 µM).
Work on O=C(Cn1cc(CN2CCN(c3cc4c(cc3F)c(=O)c(C(=O)O)cn4C3CC3)CC2)nn1)N[C@@H](Cc1ccccc1)C(=O)O yielded an MIC (Acinetobacter baumannii) of 0.25 mg/L (≈ 0.405 µM), an MIC (Escherichia coli [3]) of 0.25 mg/L (≈ 0.405 µM) and an MIC (Klebsiella pneumoniae) of 0.25 mg/L (≈ 0.405 µM). For the same compound, the MIC (Pseudomonas aeruginosa [4]) was 0.25 mg/L (≈ 0.405 µM) and the MIC (Staphylococcus aureus [5]) was 0.25 mg/L (≈ 0.405 µM).
CC(C)C[C@H](C(=O)N[C@@H]1Cc2ccc(c(Cl)c2)Oc2cc3cc(c2O[C@@H]2O[C@H](CO)[C@@H](O)[C@H](O)[C@H]2O[C@H]2C[C@](C)(NCCCCCCCc4ccccc4)[C@H](O)[C@H](C)O2)Oc2ccc(cc2Cl)[C@@H](O)[C@@H]2NC(=O)[C@H](NC(=O)[C@@H]3NC(=O)[C@H](CC(=O)O)NC1=O)c1ccc(O)c(c1)-c1c(O)cc(O)cc1[C@H](C(=O)O)NC2=O)n1cc(COCCCCCCOCc2cn([C@H](CC(C)C)C(=O)N[C@@H]3Cc4ccc(c(Cl)c4)Oc4cc5cc(c4O[C@@H]4O[C@H](CO)[C@@H](O)[C@H](O)[C@H]4O[C@H]4C[C@](C)(NCCCCCCCc6ccccc6)[C@H](O)[C@H](C)O4)Oc4ccc(cc4Cl)[C@@H](O)[C@@H]4NC(=O)[C@H](NC(=O)[C@@H]5NC(=O)[C@H](CC(=O)O)NC3=O)c3ccc(O)c(c3)-c3c(O)cc(O)cc3[C@H](C(=O)O)NC4=O)nn2)nn1 was tested, and the MIC (Staphylococcus aureus [6]) was 6.25 mg/L (≈ 1.82 µM) and the MIC (Staphylococcus aureus [7]) was 6.25 mg/L (≈ 1.82 µM).
For CC(C)C[C@H](C(=O)N[C@@H]1Cc2ccc(c(Cl)c2)Oc2cc3cc(c2O[C@@H]2O[C@H](CO)[C@@H](O)[C@H](O)[C@H]2O[C@H]2C[C@](C)(NCCCCCCCc4ccccc4)[C@H](O)[C@H](C)O2)Oc2ccc(cc2Cl)[C@@H](O)[C@@H]2NC(=O)[C@H](NC(=O)[C@@H]3NC(=O)[C@H](CC(=O)O)NC1=O)c1ccc(O)c(c1)-c1c(O)cc(O)cc1[C@H](C(=O)O)NC2=O)n1cc(COCCOCCOCc2cn([C@H](CC(C)C)C(=O)N[C@@H]3Cc4ccc(c(Cl)c4)Oc4cc5cc(c4O[C@@H]4O[C@H](CO)[C@@H](O)[C@H](O)[C@H]4O[C@H]4C[C@](C)(NCCCCCCCc6ccccc6)[C@H](O)[C@H](C)O4)Oc4ccc(cc4Cl)[C@@H](O)[C@@H]4NC(=O)[C@H](NC(=O)[C@@H]5NC(=O)[C@H](CC(=O)O)NC3=O)c3ccc(O)c(c3)-c3c(O)cc(O)cc3[C@H](C(=O)O)NC4=O)nn2)nn1, the MIC (Staphylococcus aureus [6]) was 6.25 mg/L (≈ 1.83 µM) and the MIC (Staphylococcus aureus [7]) was 6.25 mg/L (≈ 1.83 µM).
With O=C(Nc1ccc(F)cc1)OCc1cn(Cc2ccc(Br)cc2)nn1 the MIC (Pseudomonas aeruginosa [8]) was 3.12 mg/L (≈ 7.7 µM), the MIC (Bacillus subtilis) was 3.12 mg/L (≈ 7.7 µM) and the MIC [9] was 3.12 mg/L (≈ 7.7 µM). For the same compound, the MIC (Escherichia coli [10]) was 3.12 mg/L (≈ 7.7 µM).
For COc1ccc(C[C@H](NC(=O)Cn2cc(CN3CCN(c4cc5c(cc4F)c(=O)c(C(=O)O)cn5C4CC4)CC3)nn2)C(=O)O)cc1OC, the MIC (Acinetobacter baumannii) was 0.25 mg/L (≈ 0.369 µM), the MIC (Escherichia coli [3]) was 0.25 mg/L (≈ 0.369 µM) and the MIC (Klebsiella pneumoniae) was 0.25 mg/L (≈ 0.369 µM). The MIC (Pseudomonas aeruginosa [4]) was 0.25 mg/L (≈ 0.369 µM) and the MIC (Staphylococcus aureus [5]) was 0.25 mg/L (≈ 0.369 µM).
NC(=O)N/N=C/c1ccccc1OCc1cn(-c2ccc(Br)cc2)nn1 was tested, and the MIC (Pseudomonas aeruginosa [8]) was 25 mg/L (≈ 60.2 µM), the MIC (Bacillus subtilis) was 25 mg/L (≈ 60.2 µM) and the MIC [9] was 25 mg/L (≈ 60.2 µM). For the same compound, the MIC (Escherichia coli [10]) was 25 mg/L (≈ 60.2 µM) and the MIC (Staphylococcus aureus [11]) was 25 mg/L (≈ 60.2 µM).
For O=C(O)c1cn(C2CC2)c2cc(N3CCN(Cc4cn(CC(=O)N5CCC[C@H]5C(=O)O)nn4)CC3)c(F)cc2c1=O, the MIC (Acinetobacter baumannii) was 0.25 mg/L (≈ 0.44 µM), the MIC (Escherichia coli [3]) was 0.25 mg/L (≈ 0.44 µM) and the MIC (Klebsiella pneumoniae) was 0.25 mg/L (≈ 0.44 µM). It also gave an MIC (Pseudomonas aeruginosa [4]) of 0.25 mg/L (≈ 0.44 µM) and an MIC (Staphylococcus aureus [5]) of 0.25 mg/L (≈ 0.44 µM).
O=C(/C=C/c1ccc(OCc2cn(Cc3cccc(Br)c3)nn2)cc1)c1ccc([N+](=O)[O-])cc1 gave an MIC (Pseudomonas aeruginosa [1]) of 6.25 mg/L (≈ 12 µM) and an MIC (Escherichia coli [2]) of 6.25 mg/L (≈ 12 µM).
Compound COC(=O)[C@H](C)NC(=O)c1cc(=O)n(Cc2cn(C3O[C@H]4OC(C)(C)O[C@H]4[C@@H]4OC(C)(C)OC[C@@H]34)nn2)c2ccccc12 (some centres not stated) has an MIC (Escherichia coli [2]) of 9.75 mg/L (≈ 16.3 µM).
CC(C)C[C@H](C(=O)N[C@@H]1Cc2ccc(c(Cl)c2)Oc2cc3cc(c2O[C@@H]2O[C@H](CO)[C@@H](O)[C@H](O)[C@H]2O[C@H]2C[C@](C)(NCCCCCCCc4ccccc4)[C@H](O)[C@H](C)O2)Oc2ccc(cc2Cl)[C@@H](O)[C@@H]2NC(=O)[C@H](NC(=O)[C@@H]3NC(=O)[C@H](CC(=O)O)NC1=O)c1ccc(O)c(c1)-c1c(O)cc(O)cc1[C@H](C(=O)O)NC2=O)n1cc(COc2ccc(-c3ccc(OCc4cn([C@@H](CC(C)C)C(=O)N[C@H]5Cc6ccc(c(Cl)c6)Oc6cc7cc(c6O[C@H]6O[C@@H](CO)[C@H](O)[C@@H](O)[C@@H]6O[C@@H]6C[C@@](C)(NCCCCCCCc8ccccc8)[C@@H](O)[C@@H](C)O6)Oc6ccc(cc6Cl)[C@H](O)[C@H]6NC(=O)[C@@H](NC(=O)[C@H]7NC(=O)[C@@H](CC(=O)O)NC5=O)c5ccc(O)c(c5)-c5c(O)cc(O)cc5[C@@H](C(=O)O)NC6=O)nn4)cc3)cc2)nn1 was tested, and the MIC (Staphylococcus aureus [6]) was 6.25 mg/L (≈ 1.78 µM) and the MIC (Staphylococcus aureus [7]) was 6.25 mg/L (≈ 1.78 µM).
Work on NC(=S)N/N=C/c1ccc(OCc2cn(Cc3ccc(Br)cc3)nn2)cc1 yielded an MIC (Pseudomonas aeruginosa [8]) of 6.25 mg/L (≈ 14 µM), an MIC (Bacillus subtilis) of 6.25 mg/L (≈ 14 µM) and an MIC [9] of 6.25 mg/L (≈ 14 µM). The MIC (Escherichia coli [10]) was 6.25 mg/L (≈ 14 µM) and the MIC (Staphylococcus aureus [11]) was 6.25 mg/L (≈ 14 µM).
For CC(C)C[C@@H](N)C(=O)N[C@H]1C(=O)N[C@@H](CC(N)=O)C(=O)N[C@H]2C(=O)N[C@H]3C(=O)N[C@H](C(=O)N[C@H](C(=O)O)c4cc(O)cc(O)c4-c4cc3ccc4O)[C@H](O)c3ccc(c(Cl)c3)Oc3cc2cc(c3O[C@@H]2O[C@H](CO)[C@@H](O)[C@H](O)[C@H]2O[C@H]2C[C@](C)(N)[C@H](O)[C@H](C)O2)Oc2ccc(cc2Cl)[C@H]1O, the MIC (Staphylococcus aureus [6]) was 1.56 mg/L (≈ 1.09 µM) and the MIC (Staphylococcus aureus [7]) was 1.56 mg/L (≈ 1.09 µM).
